The source of these data is patent US11542274B1, “Therapeutic compounds and methods of use thereof” (AGENCY FOR SCIENCE, TECHNOLOGY AND RESEARCH (A*STAR), priority 2019, dated 2023).

Each structure is given as a SMILES string.

For the assay, the system named is RAMOS cells (Burkitt's lymphoma cell line). Kind of assay: Anti-proliferation assay (CellTiter-Glo). It is filed as cell-based. To be noted: Homo sapiens, 72 h, 3 days. The protocol: In cell growth experiments, cells were seeded in 96-well cell culture plates at a density of 3000 of RAMOS cells/well in 100 μL of culture medium. 100 μL of the diluted solution containing the tested compound was added to the appropriate wells of the cell plate. After addition of the tested compound, the cells were incubated at 37° C. in an atmosphere of 5% CO2 for 3 days. CellTiter-Glo (CTG) reagent from the Promega CellTiter-Glo Luminescent Cell Viability Assay kit (#G7572) was added into an OptiPlate 96 (Perkin Elmer, White, Opaque, #6005299) in the dark, incubated for at least 2 hrs, and luminescence signal was read using Tecan Safire II Multi-Mode Plate Reader. The GI50 was calculated by nonlinear regression analysis using GraphPad Prism5 software.
GI50 is the concentration for 50% of maximal inhibition of cell proliferation.
For orientation: ATP-based viability assays read luminescence as a measure of living cells.
For the compound `Cc1sc2c(c1C)C(c1ccc(Cl)cc1)=N[C@@H](CC(=O)Nc1ccc(OCCOCCOCCNc3ccc(-c4ccc5c(c4)CC(=O)N5)cn3)cc1)c1nnc(C)n1-2` [Compound 118, (S)-2-(4-(4-chlorophenyl)-2,3,9-trimethyl-6H-thieno[3,2-f][1,2,4]triazolo[4,3-a][1,4]diazepin-6-yl)-N-(4-(2-(2-(2-((5-(2-oxoindolin-5-yl)pyridin-2-yl)amino)ethoxy)ethoxy)ethoxy)phenyl)acetamide], the GI50 lay in the range of 0.1 to 1 µM.
Turning to `Cc1sc2c(c1C)C(c1ccc(Cl)cc1)=N[C@@H](CC(=O)N1CCN(c3ccc(-c4ccc5c(c4)CC(=O)N5)cn3)CC1)c1nnc(C)n1-2` [Compound 119, (S)-5-(6-(4-(2-(4-(4-chlorophenyl)-2,3,9-trimethyl-6H-thieno[3,2-f][1,2,4]triazolo[4,3-a][1,4]diazepin-6-yl)acetyl)piperazin-1-yl)pyridin-3-yl)indolin-2-one], the GI50 fell in the range of 0.1 to 1 µM.
Take `Cc1sc2c(c1C)C(c1ccc(Cl)cc1)=N[C@@H](CC(=O)NCCOCCOCCC(=O)N1CCN(c3ccc(-c4ccc5c(c4)CC(=O)N5)cn3)CC1)c1nnc(C)n1-2` [Compound 120]: the GI50 fell in the range of 0.001 to 0.1 µM.
For `Cc1sc2c(c1C)C(c1ccc(Cl)cc1)=N[C@@H](CC(=O)NCCOCCOCCOCCNc1ccc(-c3ccc4c(c3)CC(=O)N4C)cn1)c1nnc(C)n1-2` [Compound 121, (S)-2-(4-(4-chlorophenyl)-2,3,9-trimethyl-6H-thieno[3,2-f][1,2,4]triazolo[4,3-a][1,4]diazepin-6-yl)-N-(2-(2-(2-(2-((5-(1-methyl-2-oxoindolin-5-yl)pyridin-2-yl)amino)ethoxy)ethoxy)ethoxy)ethyl)acetamide] the value was 0.1 to 1 µM; for `Cc1sc2c(c1C)C(c1ccc(Cl)cc1)=N[C@@H](CC(=O)N1CCC(N3CCN(c4ccc(-c5ccc6c(c5)CC(=O)N6)cn4)CC3)CC1)c1nnc(C)n1-2` [Compound 123, (S)-5-(6-(4-(1-(2-(4-(4-chlorophenyl)-2,3,9-trimethyl-6H-thieno[3,2-f][1,2,4]triazolo[4,3-a][1,4]diazepin-6-yl)acetyl)piperidin-4-yl)piperazin-1-yl)pyridin-3-yl)indolin-2-one], 0.001 to 0.1 µM; for `Cc1sc2c(c1C)C(c1ccc(Cl)cc1)=N[C@@H](CC(=O)NCCNc1ccc(-c3ccc4c(c3)CC(=O)N4)cn1)c1nnc(C)n1-2` [Compound 124, (S)-2-(4-(4-chlorophenyl)-2,3,9-trimethyl-6H-thieno[3,2-f][1,2,4]triazolo[4,3-a][1,4]diazepin-6-yl)-N-(2-((5-(2-oxoindolin-5-yl)pyridin-2-yl)amino)ethyl)acetamide], 0.001 to 0.1 µM.
In the case of `Cc1sc2c(c1C)C(c1ccc(Cl)cc1)=N[C@@H](CC(=O)NC1CCN(c3ccc(-c4ccc5c(c4)CC(=O)N5)cn3)CC1)c1nnc(C)n1-2` [Compound 125, (S)-2-(4-(4-chlorophenyl)-2,3,9-trimethyl-6H-thieno[3,2-f][1,2,4]triazolo[4,3-a][1,4]diazepin-6-yl)-N-(1-(5-(2-oxoindolin-5-yl)pyridin-2-yl)piperidin-4-yl)acetamide], the GI50 was 0.001 to 0.1 µM.
For `Cc1sc2c(c1C)C(c1ccc(Cl)cc1)=N[C@@H](CC(=O)NCCCCCNc1ccc(-c3ccc4c(c3)CC(=O)N4)cn1)c1nnc(C)n1-2` [Compound 126, (S)-2-(4-(4-chlorophenyl)-2,3,9-trimethyl-6H-thieno[3,2-f][1,2,4]triazolo[4,3-a][1,4]diazepin-6-yl)-N-(5-((5-(2-oxoindolin-5-yl)pyridin-2-yl)amino)pentyl)acetamide] the value was 0.001 to 0.1 µM; for `Cc1sc2c(c1C)C(c1ccc(Cl)cc1)=N[C@@H](CC(=O)NCC1CCN(c3ccc(-c4ccc5c(c4)CC(=O)N5)cn3)CC1)c1nnc(C)n1-2` [Compound 127, (S)-2-(4-(4-chlorophenyl)-2,3,9-trimethyl-6H-thieno[3,2-f][1,2,4]triazolo[4,3-a][1,4]diazepin-6-yl)-N-((1-(5-(2-oxoindolin-5-yl)pyridin-2-yl)piperidin-4-yl)methyl)acetamide], 0.1 to 1 µM.

A word on the GI50: it is the concentration giving 50% growth inhibition. A lower GI50 goes with greater sensitivity of the cells.
